Measurements: ChEMBL document CHEMBL5500324, “The potential of marine-derived piperazine alkaloids: Sources, structures and bioactivities” (Eur J Med Chem, 2024)
In brackets after ≈: the same amount, converted by molar mass.

How the values were obtained:
HepG2 = assay: Cytotoxicity against human HepG2 cells assessed as reduction in cell growth incubated for 48 hrs by SRB assay; type: functional, cell-based; details: HepG2, 48 h
SF-268 = assay: Cytotoxicity against human SF-268 cells assessed as reduction in cell growth incubated for 48 hrs by SRB assay; type: functional, cell-based; details: SF-268, 48 h
NCI-H460 = assay: Cytotoxicity against human NCI-H460 cells assessed as reduction in cell growth incubated for 48 hrs by SRB assay; type: functional, cell-based; details: NCI-H460, 48 h
MCF7 = assay: Cytotoxicity against human MCF7 cells assessed as reduction in cell growth incubated for 48 hrs by SRB assay; type: functional, cell-based; details: MCF7, 48 h
P388 [1] = assay: Cytotoxicity against mouse P388 cells assessed as reduction in cell viability; type: functional; details: read-out: ED50 (the source's name)
P388 [2] = assay: Cytotoxicity against mouse P388 cells; type: functional; details: read-out: ED50 (the source's name)
A549 [3] = assay: Cytotoxicity against human A549 cells assessed as reduction in cell viability measured for 48 hrs by MTT assay; type: functional, cell-based; details: A549, 48 h
HL-60 = assay: Cytotoxicity against human HL-60 cells assessed as reduction in cell viability by MTT assay; type: functional, cell-based
Bel-7402 = assay: Cytotoxicity against human Bel-7402 cells assessed as reduction in cell viability measured for 48 hrs by MTT assay; type: functional, cell-based; details: Bel-7402, 48 h
MOLT-4 = assay: Cytotoxicity against human MOLT-4 cells assessed as reduction in cell viability by MTT assay; type: functional, cell-based
P388 [4] = assay: Cytotoxicity against mouse P388 cells assessed as inhibition of cell growth; type: functional, cell-based
SK-MEL-28 = assay: Cytotoxicity against human SK-MEL-28 cells assessed as inhibition of cell growth; type: functional, cell-based
HT-29 = assay: Cytotoxicity against human HT-29 cells assessed as inhibition of cell growth; type: functional, cell-based
A549 [5] = assay: Cytotoxicity against human A549 cells assessed as inhibition of cell growth; type: functional, cell-based
U-937 = assay: Cytotoxicity against human U-937 cells assessed as reduction in cell growth incubated for 48 hrs by CCK-8 assay; type: functional, cell-based; details: U-937, 48 h
QG-56 = assay: Cytotoxicity against human QG-56 cells assessed as reduction in cell growth incubated for 24 hrs by MTT assay; type: functional, cell-based; details: QG-56, 24 h
DU-145 = assay: Cytotoxicity against human DU-145 cells assessed as cell growth inhibition measured after 48 hrs by MTT assay; type: functional, cell-based; details: DU-145, 48 h

## CS[C@]1(CO)C(=O)N2[C@H]3C(=CC=C[C@@H]3OC(C)=O)C[C@@]2(SC)C(=O)N1C
HepG2
  IC50: 7 µM
SF-268
  IC50: 34 µM
NCI-H460
  IC50: 3.4 µM
MCF7
  IC50: 3.1 µM

## CN1C(=O)[C@]23Cc4ccccc4N2C(=O)[C@@]1(CO)SS3
HepG2
  IC50: 1.52 µM
SF-268
  IC50: 1.35 µM
NCI-H460
  IC50: 1.27 µM
MCF7
  IC50: 0.68 µM

## CC(C)[C@]12SS[C@]3(C(=O)N1C)[C@@H](O)C1(C45c6ccccc6N[C@H]4N4C(=O)[C@@]6(CO)SS[C@]4(C(=O)N6C)[C@H]5O)c4ccccc4N[C@@H]1N3C2=O (stereo partly drawn)
P388 [1]
  EC50: 0.00175 µg/mL (≈ 2.36 nM)

## CC(C)[C@]12SSSS[C@]3(C(=O)N1C)[C@@H](O)C1(C45c6ccccc6N[C@H]4N4C(=O)[C@@]6(C(C)C)SS[C@]4(C(=O)N6C)[C@H]5O)c4ccccc4N[C@@H]1N3C2=O (stereo partly drawn)
P388 [2]
  EC50: 0.0021 µg/mL (≈ 2.57 nM)

## COc1ccc2c(c1)N(CC=C(C)C)C(=O)[C@]21[C@H](C=C(C)C)N2C(=O)[C@@H]3CCCN3C(=O)[C@]2(O)[C@H]1O
A549 [3]
  IC50: 35.9 µM
HL-60
  IC50: 43.5 µM
Bel-7402
  IC50: 68.8 µM
MOLT-4
  IC50: 25.7 µM

## COc1c(C)cc2c(c1O)[C@@H]1N[C@H](C2)[C@H](O)N2[C@H]1[C@@H]1SC[C@H](N)C(=O)OC[C@H]2c2c(O)c(OC)c(C)c(OC(C)=O)c21
P388 [4]
  IC50: 10000 nM
SK-MEL-28
  IC50: 5 ng/mL (≈ 8.31 nM)
HT-29
  IC50: 10 ng/mL (≈ 16.6 nM)
A549 [5]
  IC50: 10 ng/mL (≈ 16.6 nM)

## CS[C@]1(C(C)C)C(=O)N2C(=CC3(C45c6ccccc6N[C@H]4N4C(=O)[C@H](CO)N(C)C(=O)[C@@]4(O)[C@H]5O)c4ccccc4N[C@H]23)C(=O)N1C (stereo partly drawn)
P388 [2]
  EC50: 15.2 µg/mL (≈ 23000 nM)

## CO[C@@]12C(=O)N(C)[C@@H](CO)C(=O)N1[C@@H]1Nc3ccccc3C1(C13c4ccccc4N[C@@H]1N1C(=O)[C@@]4(C(C)C)SS[C@]1(C(=O)N4C)[C@@H]3O)[C@H]2O (stereo partly drawn)
P388 [2]
  EC50: 0.18 µg/mL (≈ 254 nM)

## CSS[C@@]1(C(C)C)C(=O)N2C(=CC3(C45c6ccccc6N[C@H]4N4C(=O)[C@H](CO)N(C)C(=O)[C@@]4(O)[C@H]5O)c4ccccc4N[C@H]23)C(=O)N1C (stereo partly drawn)
P388 [2]
  EC50: 1.1 µg/mL (≈ 1590 nM)

## COc1ccc2c3c(n(CC=C(C)C)c2c1)[C@H](C=C(C)C)N1C(=O)[C@@H]2CCCN2C(=O)[C@]1(O)C3=O
A549 [3]
  IC50: 16.9 µM
HL-60
  IC50: 1.9 µM
Bel-7402
  IC50: 25.6 µM
MOLT-4
  IC50: 25.7 µM

## COc1ccc2c(c1)N(/C=C/C(C)(C)OO)C(=O)[C@]21[C@H](C=C(C)C)N2C(=O)[C@@H]3CCCN3C(=O)[C@]2(O)[C@H]1O
A549 [3]
  IC50: 3.1 µM
HL-60
  IC50: 2.3 µM
Bel-7402
  IC50: 98.4 µM
MOLT-4
  IC50: 3.1 µM

## COc1ccc2c3c([nH]c2c1)[C@H](C=C(C)C)N1C(=O)[C@@H]2CCCN2C(=O)[C@]1(O)C3
U-937
  IC50: 18.2 µM

## CC(C)[C@]12SS[C@]3(C(=O)N1C)[C@@H](O)C1(C45c6ccccc6N[C@H]4N4C(=O)[C@@]6(C(C)C)SS[C@]4(C(=O)N6C)[C@H]5O)c4ccccc4N[C@@H]1N3C2=O (stereo partly drawn)
P388 [2]
  EC50: 0.0038 µg/mL (≈ 5.05 nM)

## COc1ccc2c3c([nH]c2c1)[C@H](C=C(C)C)N1C(=O)[C@@H]2CCCN2C(=O)[C@@]1(O)[C@H]3O
U-937
  IC50: 92.4 µM

## COc1cc2c(cc1O)CCN[C@@]21CS[C@@H]2c3c(OC(C)=O)c(C)c4c(c3[C@H](COC1=O)N1[C@@H]2[C@@H]2N[C@@H](Cc3cc(C)c(OC)c(O)c32)[C@@H]1O)OCO4
P388 [4]
  IC50: 200 nM
SK-MEL-28
  IC50: 5 ng/mL (≈ 6.69 nM)
HT-29
  IC50: 0.5 ng/mL (≈ 0.669 nM)
A549 [5]
  IC50: 0.2 ng/mL (≈ 0.267 nM)

## CC(C)[C@]12SS[C@]3(C(=O)N1C)[C@@H](O)C1(C45c6ccccc6N[C@H]4N4C(=O)[C@@]6(CO)SSS[C@]4(C(=O)N6C)[C@H]5O)c4ccccc4N[C@@H]1N3C2=O (stereo partly drawn)
P388 [1]
  EC50: 0.0024 µg/mL (≈ 3.1 nM)

## CC(C)[C@]12SSS[C@]3(C(=O)N1C)[C@@H](O)C1(C45c6ccccc6N[C@H]4N4C(=O)[C@@]6(CO)SSSS[C@]4(C(=O)N6C)[C@H]5O)c4ccccc4N[C@@H]1N3C2=O (stereo partly drawn)
P388 [2]
  EC50: 0.0046 µg/mL (≈ 5.5 nM)

## CO[C@@]12C(=O)N(C)[C@@H](CO)C(=O)N1[C@@H]1Nc3ccccc3C1(C13c4ccccc4N[C@@H]1N1C(=O)[C@@]4(C(C)C)SSSS[C@]1(C(=O)N4C)[C@H]3O)[C@@H]2O (stereo partly drawn)
P388 [2]
  EC50: 1.05 µg/mL (≈ 1360 nM)

## CO[C@@]12C(=O)N(C)[C@@H](CO)C(=O)N1[C@@H]1Nc3ccccc3C1(C13c4ccccc4N[C@@H]1N1C(=O)[C@@]4(C(C)C)SS[C@]1(C(=O)N4C)[C@H]3O)[C@@H]2O (stereo partly drawn)
P388 [2]
  EC50: 1.4 µg/mL (≈ 1980 nM)

## C=C(C)[C@H](O)Cn1c2c(c3ccc(OC)cc31)[C@H](O)[C@@]1(O)C(=O)N3CCC[C@H]3C(=O)N1[C@H]2C=C(C)C
A549 [3]
  IC50: 11.6 µM
HL-60
  IC50: 5.4 µM
Bel-7402
  IC50: 10.8 µM
MOLT-4
  IC50: 11 µM

## CC(C)[C@]12SSS[C@]3(C(=O)N1C)[C@@H](O)C1(c4c[nH]c5ccccc45)c4ccccc4N[C@@H]1N3C2=O (stereo partly drawn)
P388 [1]
  EC50: 0.046 µg/mL (≈ 87.7 nM)

## CS[C@@]1(C(C)C)C(=O)N2C(=CC3(C45c6ccccc6N[C@H]4N4C(=O)[C@H](CO)N(C)C(=O)[C@@]4(O)[C@H]5O)c4ccccc4N[C@H]23)C(=O)N1C (stereo partly drawn)
P388 [2]
  EC50: 14.8 µg/mL (≈ 22400 nM)

## CC(C)[C@]12SSS[C@]3(C(=O)N1C)[C@@H](O)C1(C45c6ccccc6N[C@H]4N4C(=O)[C@@]6(CO)SSS[C@]4(C(=O)N6C)[C@H]5O)c4ccccc4N[C@@H]1N3C2=O (stereo partly drawn)
P388 [2]
  EC50: 0.0043 µg/mL (≈ 5.34 nM)

## CS[C@]1(CO)C(=O)n2c(cc3ccccc32)C(=O)N1C
HepG2
  IC50: 28.9 µM
SF-268
  IC50: 35.7 µM
NCI-H460
  IC50: > 100 µM
MCF7
  IC50: 29.5 µM

## CC(C)[C@]12SS[C@]3(C(=O)N1C)[C@@H](O)C1(c4c[nH]c5ccccc45)c4ccccc4N[C@@H]1N3C2=O (stereo partly drawn)
P388 [1]
  EC50: 0.086 µg/mL (≈ 175 nM)

## C=C(C)[C@@H](O)Cn1c2c(c3ccc(OC)cc31)[C@H](O)[C@@]1(O)C(=O)N3CCC[C@H]3C(=O)N1[C@H]2C=C(C)C
A549 [3]
  IC50: 11 µM
HL-60
  IC50: 3.4 µM
Bel-7402
  IC50: 7 µM
MOLT-4
  IC50: 11 µM

## CSS[C@]1(C(C)C)C(=O)N2C(=CC3(C45c6ccccc6N[C@H]4N4C(=O)[C@H](CO)N(C)C(=O)[C@@]4(O)[C@H]5O)c4ccccc4N[C@H]23)C(=O)N1C (stereo partly drawn)
P388 [2]
  EC50: 0.1 µg/mL (≈ 144 nM)

## COc1ccc2c(c1)N(CC=C(C)C)C(=O)[C@]21[C@H](C=C(C)C)N2C(=O)[C@]3(O)CCCN3C(=O)[C@]2(O)[C@H]1O
A549 [3]
  IC50: 35.5 µM
HL-60
  IC50: 45 µM
Bel-7402
  IC50: 17.5 µM
MOLT-4
  IC50: 25.7 µM

## CC(C)[C@]12SSSS[C@]3(C(=O)N1C)[C@@H](O)C1(c4c[nH]c5ccccc45)c4ccccc4N[C@@H]1N3C2=O (stereo partly drawn)
P388 [1]
  EC50: 0.056 µg/mL (≈ 101 nM)

## CC(C)[C@]12SSS[C@]3(C(=O)N1C)[C@@H](O)C1(C45c6ccccc6N[C@H]4N4C(=O)[C@@]6(C(C)C)SS[C@]4(C(=O)N6C)[C@H]5O)c4ccccc4N[C@@H]1N3C2=O (stereo partly drawn)
P388 [2]
  EC50: 0.0022 µg/mL (≈ 2.8 nM)

## CC(C)[C@]12SS[C@]3(C(=O)N1C)[C@@H](O)C1(C45c6ccccc6N[C@H]4N4C(=O)[C@@]6(CO)SSSS[C@]4(C(=O)N6C)[C@H]5O)c4ccccc4N[C@@H]1N3C2=O (stereo partly drawn)
P388 [1]
  EC50: 0.00185 µg/mL (≈ 2.3 nM)

## COc1c(C)cc2c(c1O)[C@H]1[C@@H]3[C@@H]4SC[C@H](N)C(=O)OC[C@@H](c5c(O)c(OC)c(C)c(OC(C)=O)c54)N3[C@@H](O)[C@@H](C2)N1C
P388 [4]
  IC50: 2000 nM
SK-MEL-28
  IC50: 2 ng/mL (≈ 3.25 nM)
HT-29
  IC50: 2 ng/mL (≈ 3.25 nM)
A549 [5]
  IC50: 2 ng/mL (≈ 3.25 nM)

## CC(C)[C@]12SSS[C@]3(C(=O)N1C)[C@@H](O)C1(C45c6ccccc6N[C@H]4N4C(=O)[C@@]6(CO)SS[C@]4(C(=O)N6C)[C@H]5O)c4ccccc4N[C@@H]1N3C2=O (stereo partly drawn)
P388 [2]
  EC50: 0.0044 µg/mL (≈ 5.69 nM)

## CO[C@@]12C(=O)N(C)[C@@H](C(C)C)C(=O)N1[C@@H]1Nc3ccccc3C1(C13c4ccccc4N[C@@H]1N1C(=O)[C@@]4(C(C)C)SSS[C@]1(C(=O)N4C)[C@@H]3O)[C@H]2O (stereo partly drawn)
P388 [2]
  EC50: 0.19 µg/mL (≈ 252 nM)

## CC(C)[C@]12SSSS[C@]3(C(=O)N1C)[C@@H](O)C1(C45c6ccccc6N[C@H]4N4C(=O)[C@@]6(CO)SS[C@]4(C(=O)N6C)[C@H]5O)c4ccccc4N[C@@H]1N3C2=O (stereo partly drawn)
P388 [2]
  EC50: 0.003 µg/mL (≈ 3.73 nM)

## C/C=C(/C)C(=O)OC[C@H]1C2=C(C[C@H]3[C@H]4C5=C(C[C@@H]([C@H](C#N)N13)N4C)C(=O)C(C)=C(OC)C5=O)C(=O)C(C)=C(OC)C2=O [RENIERAMYCIN M]
QG-56
  IC50: 0.76 nM
DU-145
  IC50: 19 nM
